Like-named read-outs stand apart in the source and are kept apart here.
What was measured:
[1] = target: T1, human recombinant histamine H1 receptor (Homo sapiens, UniProt P35367); assay: Histamine H1 radioligand binding ([3H]Pyrilamine)
T1 construct: expressed in transfected cells; host or cells: CHO cells
Procedure, shortened: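 CHO-expressed receptor in modified Tris-HCl buffer (50 mM, pH 7.4; 2 mM MgCl2, 100 mM NaCl, 250 mM sucrose); bound ligand measured after filtration and washing.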

[2] = target: T2, human recombinant adrenergic α1D receptor (Homo sapiens, UniProt P25100); assay: Adrenergic α1D radioligand binding ([3H]Prozosin); parameters: Inhibition of ligand binding, Adren. alpha1D: concentration or dose not given beside the values; conditions: percent inhibition of specific binding
T2 construct: expressed in transfected cells; host or cells: HEK-293 cells
T2 sequence (P25100 1-572): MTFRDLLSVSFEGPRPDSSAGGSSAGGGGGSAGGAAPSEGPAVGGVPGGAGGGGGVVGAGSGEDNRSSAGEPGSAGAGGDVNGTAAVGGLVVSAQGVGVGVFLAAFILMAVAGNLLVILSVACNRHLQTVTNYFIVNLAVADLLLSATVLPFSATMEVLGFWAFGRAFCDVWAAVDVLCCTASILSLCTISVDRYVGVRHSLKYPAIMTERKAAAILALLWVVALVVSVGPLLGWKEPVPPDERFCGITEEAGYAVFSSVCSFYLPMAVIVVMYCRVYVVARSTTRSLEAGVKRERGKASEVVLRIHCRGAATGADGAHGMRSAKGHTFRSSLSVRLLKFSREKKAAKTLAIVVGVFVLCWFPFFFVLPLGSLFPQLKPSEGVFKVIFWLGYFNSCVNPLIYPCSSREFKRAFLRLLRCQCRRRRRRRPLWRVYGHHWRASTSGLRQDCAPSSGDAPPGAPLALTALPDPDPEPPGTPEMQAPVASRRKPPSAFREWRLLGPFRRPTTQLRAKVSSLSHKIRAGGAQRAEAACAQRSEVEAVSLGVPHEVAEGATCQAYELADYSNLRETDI
Protocol: Compounds of invention were incubated with 0.6 nM [^3H]Prozosin for 60 minutes at 25° C. Non-specific binding was estimated in the presence of 10 μM phentolamine. Receptor proteins were filtered and washed, the filters were then counted to determine [^3H]Prozosin specifically bound. […] Biochemical assay results are presented as the percent inhibition of specific binding in Table 6.

[3] = target: T3, human recombinant adrenergic α2B receptor (Homo sapiens, UniProt P18089); assay: Adrenergic α2B radioligand binding ([3H]Rauwolscine); parameters: Inhibition of ligand binding, Adren. alpha2B: concentration or dose not given beside the values; conditions: percent inhibition of specific binding
T3 construct: expressed in transfected cells; host or cells: CHO-K1 cells
T3 sequence (P18089 1-450): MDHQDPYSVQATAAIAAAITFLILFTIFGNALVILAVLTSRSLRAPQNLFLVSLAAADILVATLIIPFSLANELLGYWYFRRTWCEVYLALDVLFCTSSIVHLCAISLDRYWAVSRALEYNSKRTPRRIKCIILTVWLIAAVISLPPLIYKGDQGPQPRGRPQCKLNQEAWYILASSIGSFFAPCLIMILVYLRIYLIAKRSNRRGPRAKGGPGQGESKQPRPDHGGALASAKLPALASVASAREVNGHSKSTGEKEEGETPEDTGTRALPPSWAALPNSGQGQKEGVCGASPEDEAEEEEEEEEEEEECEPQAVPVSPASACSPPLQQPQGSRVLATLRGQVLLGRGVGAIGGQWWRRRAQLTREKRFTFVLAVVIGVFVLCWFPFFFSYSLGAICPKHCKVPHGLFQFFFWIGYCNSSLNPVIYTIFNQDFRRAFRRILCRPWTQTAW
Protocol: To evaluate in radioligand binding assays the activity of compounds of the invention, human recombinant adrenergic α2B receptor expressed in Chinese hamster ovary (CHO-K1) cells (Uhlen S et al. Eur J. Pharmacol. 343(1):93, 1998) in a modified Tris-HCl buffer (50 mM Tris-HCl, pH 7.4, 12.5 mM MgCl2, 1 mM EDTA, 0.2% BSA) was used. Compounds of the invention were incubated with 2.5 nM [^3H]Rauwolscine for 60 minutes at 25° C. Non-specific binding was estimated in the presence of 10 μM Prozosin. Receptor proteins were filtered and washed, the filters were then counted to determine [^3H]Rauwolscine specifically bound. […] Biochemical assay results are presented as the percent inhibition of specific binding in Table 6.

[4] = 1 μM compound, […] [3H]Pyrilamine, read-out: Histamine Binding H1, percent inhibition of specific binding
[5] = percent inhibition of specific binding, screened at 1 μM, read-out: Inhibition of ligand binding, Hist. H1

T1 sequence (P35367 whole entry): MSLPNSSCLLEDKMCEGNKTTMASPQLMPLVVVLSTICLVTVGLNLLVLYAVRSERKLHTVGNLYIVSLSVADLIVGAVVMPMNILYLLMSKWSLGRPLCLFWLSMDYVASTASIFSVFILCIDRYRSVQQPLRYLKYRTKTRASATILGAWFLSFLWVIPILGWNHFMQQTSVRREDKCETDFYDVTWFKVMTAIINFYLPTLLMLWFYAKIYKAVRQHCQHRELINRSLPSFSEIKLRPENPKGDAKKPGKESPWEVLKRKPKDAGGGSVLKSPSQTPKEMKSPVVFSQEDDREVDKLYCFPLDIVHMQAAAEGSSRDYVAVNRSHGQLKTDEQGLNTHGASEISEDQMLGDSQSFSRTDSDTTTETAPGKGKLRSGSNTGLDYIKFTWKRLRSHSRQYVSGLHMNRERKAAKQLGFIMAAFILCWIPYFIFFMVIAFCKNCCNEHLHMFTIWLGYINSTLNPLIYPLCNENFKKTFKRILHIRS

Row | SMILES | inhibition at 1 µM [1, 4] | inhibition at 1 µM [1, 5] | Inhibition of ligand binding, Adren. alpha1D [2] | Inhibition of ligand binding, Adren. alpha2B [3]
1 | Cc1ccc2c(c1)c1c(n2CCc2ccc(C)nc2)CCNC1 [Compound 230, 2,3,4,5-tetrahydro-8-methyl-5-(2-(6-methylpyridin-3-yl)ethyl)-1H-pyrido[4,3-b]indole] | 46% | 93% | 75% | 104%
2 | Cc1ccc2c(c1)c1c(n2CCC(=O)N2CCC(N)CC2)CCN(C)C1 [Compound 231, 1-(4-aminopiperidin-1-yl)-3-(1,2,3,4-tetrahydro-2,8-dimethylpyrido[4,3-b]indol-5-yl)propan-1-one] | -11% | -11% | 21% | 11%
3 | Cc1ccc2c(c1)c1c(n2CCc2ccc(C)nc2)C(Br)C(=O)N(C)C1 (stereo not drawn) [Compound 232, 4-bromo-1,2-dihydro-2,8-dimethyl-5-(2-(6-methylpyridin-3-yl)ethyl)-4H-pyrido[4,3-b]indol-3(5H)-one] | -6% | -6% | 5% | 8%
4 | Cc1ccc2c(c1)c1c(n2CCCc2ccccn2)CCN(C)C1 [Compound 233, 2,3,4,5-tetrahydro-2,8-dimethyl-5-(3-(pyridin-2-yl)propyl)-1H-pyrido[4,3-b]indole] | 99% | 99% | 49% | 96%
5 | CN1CCc2c(c3cc(Cl)ccc3n2CC(=O)N2CCCCC2)C1 [Compound 236, 2-(8-chloro-1,2,3,4-tetrahydro-2-methylpyrido[4,3-b]indol-5-yl)-1-(piperidin-1-yl)ethanone] | 42% | 42% | 10% | 9%
6 | CC1CCN(C(=O)Cn2c3c(c4cc(Cl)ccc42)CN(C)CC3)CC1 [Compound 237, 2-(8-chloro-1,2,3,4-tetrahydro-2-methylpyrido[4,3-b]indol-5-yl)-1-(4-methylpiperidin-1-yl)ethanone] | 77% | 77% | 14% | 12%
7 | CN1CCc2c(c3cc(Cl)ccc3n2CC(=O)N2CCOCC2)C1 [Compound 238, 2-(8-chloro-1,2,3,4-tetrahydro-2-methylpyrido[4,3-b]indol-5-yl)-1-morpholinoethanone] | 26% | 26% | 2% | 14%
8 | CN1CCc2c(c3cc(Cl)ccc3n2CC(=O)N2CCSCC2)C1 [Compound 239, 2-(8-chloro-1,2,3,4-tetrahydro-2-methylpyrido[4,3-b]indol-5-yl)-1-thiomorpholinoethanone] | 50% | 50% | 3% | 24%
9 | CN1CCc2c(c3cc(Cl)ccc3n2CCC(=O)N2CCCC2)C1 [Compound 240, 3-(8-chloro-1,2,3,4-tetrahydro-2-methylpyrido[4,3-b]indol-5-yl)-1-(pyrrolidin-1-yl)propan-1-one] | 60% | 60% | 42% | 50%
10 | CN1CCc2c(c3cc(Cl)ccc3n2CC(=O)N2CCCC2)C1 [Compound 243, 2-(8-chloro-1,2,3,4-tetrahydro-2-methylpyrido[4,3-b]indol-5-yl)-1-(pyrrolidin-1-yl)ethanone] | 84% | 84% | 8% | 6%
11 | CN1CCc2c(c3cc(Cl)ccc3n2CC(=O)N2CCNCC2)C1 [Compound 244] | 15% | 15% | 12% | 13%
12 | CC1CN(C(=O)Cn2c3c(c4cc(Cl)ccc42)CN(C)CC3)CC(C)N1 (stereo not drawn) [Compound 245] | 22% | 22% | 1% | 19%
13 | CN1CCc2c(c3cc(Cl)ccc3n2CC(=O)N2CCNC(=O)C2)C1 [Compound 246] | 18% | 18% | 12% | 11%
14 | COc1ccc(CCn2c3c(c4cc(C)ccc42)CN(C)CC3)cc1 [Compound 247] | 100% | 100% | 95% | 103%
15 | Cc1ccc2c(c1)c1c(n2CCc2ccc(C(=O)O)nc2)CCN(C)C1 [Compound 255] | 71% | 71% | 2% | 4%
16 | Cc1ccc2c(c1)c1c(n2CCc2ccc(CO)nc2)CCN(C)C1 [Compound 267] |  | 96% | 92% | 100%
17 | Cc1ccc(CCn2c3c(c4cc(C(=O)O)ccc42)CNCC3)cn1 [Compound 274, 2,3,4,5-tetrahydro-5-(2-(6-methylpyridin-3-yl)ethyl)-1H-pyrido[4,3-b]indole-8-carboxylic acid] |  | 1% | −16% | 9%
18 | CCOC(=O)c1ccc(CCn2c3c(c4cc(C)ccc42)CN(C)CC3)cn1 [Compound 275, ethyl 5-(2-(1,2,3,4-tetrahydro-2,8-dimethylpyrido[4,3-b]indol-5-yl)ethyl)pyridine-2-carboxylate] |  | 92% | 87% | 92%
19 | CN1CCc2c(c3cc(Cl)ccc3n2CC(=O)N2CCS(=O)(=O)CC2)C1 [Compound 295] |  | -3% | 4% | 18%

— US9096591B2, “Tetracyclic compounds” (Medivation Technologies, Inc., priority 2007, dated 2015)
